Measured values published in paper PMC12814185, “Receptor-Mediated Shuttling of a D‑Amino Acid Peptide Achieves High Nanomolar Cytosolic Concentrations” (Journal of the American Chemical Society, 2025).
Where a SMILES comes first, the peptide text is derived from it. Bridges are numbered along the chain shown (N, C = ends). Roman numbers before positions name the chains, in order. Triazole bridges read from a SMILES are 1,4-linked. Where no end group is shown, it is not given here. Side-chain parts run from the residue outwards. [ ]: non-standard residue; d: D form. The star is where a group is joined. X2 = CN1C(=C/C=C/C=C/C2=[N+](CCCCCC(=O)*)c3ccc(S(=O)(=O)[O-])cc3C2(C)C)C(C)(C)c2cc(S(=O)(=O)O)ccc21; X1 = CN1C(=CC=CC=CC2=[N+](CCCCCC(=O)*)c3ccc(S(=O)(=O)[O-])cc3C2(C)C)C(C)(C)c2cc(S(=O)(=O)O)ccc21; Lys(N3) = [N-]=[N+]=NCCCC[C@H](N)C(=O)O; Cit = NC(=O)NCCC[C@H](N)C(=O)O; d(hCys) = N[C@H](CCS)C(=O)O; PEG3 = NCCOCCOCCOCCC(=O)O; Pra = C#CC[C@H](N)C(=O)O

Experiments:
[1] = system: HEK293 cells stably expressing CMKLR1-eYFP; test: Live cell fluorescence microscopy of peptide internalization, cells with CMKLR1; type: cell-based; details: 1 μM Cy5-labeled peptide, 6 h, cells transfected with CMKLR1
Method: 2 Internalization of cyclic chemerin-9 conjugates. Live cell fluorescence microscopy of HEK293 and HEK293 cells stably expressed CMKLR1-eYFP. Cells were incubated with 1 μM Cy5-labeled peptide for 6 h before imaging. Blue = Hoechst33342, yellow = CMKLR1-eYFP, magenta = Cy5-peptide, scale bar ≙ 10 μm. […]
Salt Solution (HBSS, Biowest), pH 7.5) for 1 h. […]
Experiments were performed in technical duplicates and at least […]
HEK293 and HEK293_CMKLR1-eYFP cells were seeded at 15,000 cells per well into poly-ᴅ-lysine coated 96-well plates (black µCLEAR, Greiner). The next day, dilutions of the Cy5 -labeled peptides or Nutlin-3a […]
Cells were then washed and a resazurin-based cell viability […]
assay was performed. […]
Experiments […]
were performed in technical triplicates and at least twice.
Peptide internalization was evaluated by fluorescence microscopy. HEK293 and stably transfected […]
microscopy slides (ibidi). The next day, 1 µM Cy5-labeled peptides in cell culture medium were added to the cells and incubated for 6 h.
FluoroBriteTM DMEM (Gibco) with 10% FBS, 25 mM HEPES (pH 7.4) before imaging on an AxioVision Observer.Z1 microscope equipped with an apotome imaging system, an HXP120C light source, and a C-Apochromat 63x/1.20 W objective. All shown microscopy images are representative of at least two

HEK293_CMKLR1-eYFP cells = test: Fluorescence correlation spectroscopy (FCS) in the cytosol; details: 72 h; for cytosolic concentration, median (IQR) / cytosolic concentration, mean ± SD: FCS at 22 °C
Method: 3 Quantification of Cy5-labeled peptides in the cytosol. (A) RP-HPLC (λex = 640 nm, λem = 670 nm) of cleavage products of Cy5-labeled peptides in the lysate of HEK293_CMKLR1-eYFP cells after incubation with 1 μM peptide for different durations. […] (B) Representative fluorescence correlation spectroscopy (FCS) autocorrelation curves of Cy5-labeled peptides measured in the cytosol of HEK293_CMKLR1-eYFP cells after 72 h of incubation. Measured curves were fitted with a model for hindered 3D diffusion and diffusion time t D and anomalous coefficient α were calculated from the fit. Autocorrelation data represent mean ± SD of up to 10 consecutive 5 s measurements in a single cell. (C) Intracellular concentrations of Cy5-labeled peptides after 72 h incubation calculated from the fitted autocorrelation curves obtained in HEK293_CMKLR1-eYFP, HMEC-1, and THP-1 cells. Each data point corresponds to FCS measurements from the cytosol of a single cell. Median with the interquartile range is shown. Data from three independent experiments. Statistical comparison by log-normal unpaired t test. ***p ≤ 0.001, **p ≤ 0.01, *p ≤ 0.05, ns – not significant. […] (D) Calculated diffusion coefficients from the fitted autocorrelation curves. Median with the interquartile range is shown. […]
Fluorescence correlation spectroscopy (FCS)
Cytosolic delivery was quantified by FCS as has been described previously.3–5 Stably transfected HEK293_CMKLR1-eYFP cells were seeded at 30,000 cells per well and HMEC-1 cells at 10,000 cells per well into poly-ᴅ-lysine-coated 8-well microscopy slides (ibidi) in their respective cell culture medium. THP-1 cells were resuspended in fresh cell culture medium at 100,000 cells/mL in 500 µL cell culture medium in uncoated 12-well plates. The next day, dilutions of Cy5-labeled peptides were added to the cells and incubated for 72 h. Cell membranes of HMEC-1 and THP-1 cells were stained with 20 µg/mL Alexa Fluor 488-labeled concanavalin A (Invitrogen) for 20 min to enable identification of the cytosol. Nuclei were counterstained with Hoechst33342, and cells were washed with FluoroBriteTM DMEM (Gibco) + 25 mM HEPES (pH 7.4). After washing, THP-1 cells were transferred to poly-ᴅ-lysine-coated 8-well microscopy slides and allowed to sediment and adhere for 1 h. Confocal imaging and FCS were performed at 22 °C on a TCS SP8 FALCON microscope (Leica) with a Plan-Apochromat 40x/1,10 water immersion objective and HyD single molecule detector (Leica). The 638 nm laser line was used for excitation at 0.5% power and […]

MDA-MB-231 cells = test: as above; type: cell-based; details: 72 h
Excerpt: Fluorescence correlation spectroscopy (FCS) […] Prior to measurements, the correction collar of the objective […] 1 τ 1 1 (Equation 2) G(τ) = ∗ (1 - […] 1 + ( τ )α √1 + S2 ∗ ( τ )α τD τD 4

[2] = FCS diffusion coefficient in solution; type: physicochemical; details: 10 nM in Fluorobrite DMEM, 22 °C, mean and SD of three independent measurements
Excerpt: Fluorescence correlation spectroscopy (FCS) […] Nuclei were […] HEPES (pH 7.4). […] Prior to measurements, the correction collar of the objective […] Repeats […] is the autocorrelation at τ, N the average number of molecules in the focal volume, τD the average diffusion time through the focal volume, α the anomalous coefficient describing the hindered diffusion, S the shape factor of the focal volume, τE the time domain of the additional exponential term and E the fraction of molecules in the exponential term. […] [nM] [nM] […] 100 23.5 ± 40.2 11.9 *÷ 3.0 10.2 (5.2-32.1) 1000 138 ± 122 87.7 *÷ 3.0 98.8 (37.8-199) 10000 308 ± 257 239 *÷ 2.0 228 (157-435) […] Table S8. Predicted and measured diffusion coefficients D in solution. Measurements were performed with 10 nM of fluorescent compounds in Fluorobrite […] Data from three independent measurements. Mean and standard deviation are shown. name molecular predicted D measured […]] sulfo-Cy5 778.0 - 341.6 (reference) […] Intracellular cleavage product 2401.8 244.7 - 3Cy […]9 4475.1 175.0 138.5 ± 5.1 Intracellular cleavage product 2733.2 234.4 - 18

[3] = target: T1, recombinant human GST-MDM2 (Homo sapiens, UniProt Q00987); test: Fluorescence polarization binding of Cy5-labeled peptides to MDM2; details: 20 nM Cy5-labeled peptide, FP buffer pH 7.4, 30 min room temperature; performed twice in technical triplicates
T1 construct: purchased R&D Systems
T1 sequence (Q00987 whole entry): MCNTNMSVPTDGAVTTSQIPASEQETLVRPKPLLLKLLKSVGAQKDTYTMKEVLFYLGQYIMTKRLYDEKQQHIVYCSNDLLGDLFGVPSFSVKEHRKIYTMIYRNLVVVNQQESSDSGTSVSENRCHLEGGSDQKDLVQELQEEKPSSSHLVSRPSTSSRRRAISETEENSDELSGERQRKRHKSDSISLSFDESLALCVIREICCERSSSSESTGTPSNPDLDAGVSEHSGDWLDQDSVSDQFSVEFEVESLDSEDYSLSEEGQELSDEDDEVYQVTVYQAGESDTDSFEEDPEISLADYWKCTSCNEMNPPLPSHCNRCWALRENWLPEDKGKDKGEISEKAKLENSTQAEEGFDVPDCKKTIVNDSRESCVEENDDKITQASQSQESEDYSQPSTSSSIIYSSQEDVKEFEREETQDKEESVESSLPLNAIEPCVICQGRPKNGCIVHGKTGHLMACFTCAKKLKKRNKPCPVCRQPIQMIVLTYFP
Method: (B) Fluorescence polarization measurement of 20 nM Cy5-labeled peptides binding to recombinant human GST-MDM2.
20 nM of Cy5-labeled peptides were added to dilutions of human MDM2 (Recombinant Human GST -
MDM2/HDM2, R&D Systems) in FP buffer (50 mM tris(hydroxymethyl)aminomethane (Tris, Carl Roth),
150 mM sodium chloride (Sigma), 1 mM EDTA (Sigma), 0.01% (v/v) Tween20 (Sigma), pH 7.4) and
incubated for 30 min at room temperature. Fluorescence polarization was then measured in a Tecan
Spark plate reader (λex = 640 nm, λem = 670 nm). Measurements were performed twice in technical
triplicates. Data was then fit with Prism 10 (GraphPad) using non-linear regression with the following
solution to the quadratic binding equation 1 to obtain Kd:
𝐹𝑃 = 𝐹𝑃 + (𝐹𝑃 − 𝐹𝑃 ) ∗ 𝑐 + 𝑐 + 𝐾 − 𝑝𝑒𝑝𝑡𝑖𝑑𝑒 𝑀𝐷𝑀2 𝑑 𝑝𝑒𝑝𝑡𝑖𝑑𝑒 𝑀𝐷𝑀2

[4] = applied concentration 10 nM, single cells, three independent experiments
[5] = applied concentration 1000 nM (1 μM)
[6] = applied concentration 10000 nM (10 μM)

| Compound | internalization [1] | cytosolic concentration, median (IQR) (HEK293_CMKLR1-eYFP cells; applied concentration 10 nM) | cytosolic concentration, mean ± SD (HEK293_CMKLR1-eYFP cells; [4]) [nM] | cytosolic concentration, mean ± SD (HEK293_CMKLR1-eYFP cells; applied concentration 100 nM) [nM] | cytosolic concentration, median (IQR) (HEK293_CMKLR1-eYFP cells; applied concentration 100 nM) | cytosolic concentration, median (IQR) (HEK293_CMKLR1-eYFP cells; [5]) | cytosolic concentration, mean ± SD (HEK293_CMKLR1-eYFP cells; applied concentration 1000 nM) [nM] | cytosolic concentration, median (IQR) (HEK293_CMKLR1-eYFP cells; [6]) [nM] | cytosolic concentration, mean ± SD (HEK293_CMKLR1-eYFP cells; applied concentration 10000 nM) [nM] | cytosolic FCS measurement (MDA-MB-231 cells) | measured D in solution [2] [µm2/s] | Kd [3] [nM] | cellular stress (HEK293_CMKLR1-eYFP cells; 10 μM, data not shown) |
| --- | --- | --- | --- | --- | --- | --- | --- | --- | --- | --- | --- | --- | --- |
| CC(=O)N[C@@H](CCCCn1cc(C[C@H](NC(=O)CCOCCOCCOCCNC(=O)[C@H](CCCNC(N)=O)NC(=O)[C@@H](NC(=O)[C@H](CCC(=O)O)NC(=O)CNC(=O)CNC(=O)[C@@H](CCCNC(=N)N)NC(=O)[C@@H](CC(C)C)NC(=O)[C@@H](CC(C)C)NC(=O)[C@@H](C)NC(=O)[C@@H](CCC(=O)O)NC(=O)[C@@H](Cc2ccccc2)NC(=O)[C@@H](C)NC(=O)[C@@H](CC(C)C)NC(=O)[C@H]2CCCN2C(=O)[C@@H](Cc2c[nH]c3ccccc23)NC(=O)[C@@H](Cc2c[nH]c3ccccc23)NC(=O)[C@@H](CC(=O)O)NC(=O)CCOCCOCCOCCNC(=O)CCCCC[N+]2=C(/C=C/C=C/C=C3N(C)c4ccc(S(=O)(=O)O)cc4C3(C)C)C(C)(C)c3cc(S(=O)(=O)[O-])ccc32)C(C)C)C(N)=O)nn1)C(=O)N[C@@H](Cc1ccc(O)cc1)C(=O)N[C@@H](Cc1ccccc1)C(=O)N1CCC[C@H]1C(=O)N[C@@H]1CCSSC[C@@H](C(=O)O)NC(=O)[C@H](Cc2ccccc2)NC(=O)[C@H](C)NC(=O)[C@H](Cc2ccccc2)NC(=O)[C@H](CCC(N)=O)NC1=O [2Cy] (I: {X2-PEG3}-[dD][dW][dW][dP][dL][dA][dF][dE][dA][dL][dL][dR]GGEV[Cit][PEG3][Pra]-NH2 / II: Ac-[Lys(N3)]YFP[d(hCys)]QFAFC-OH; triazole I:19-II:1; disulfide II:5-II:10) | internalized efficiently | 6.2 (3.1–9.1) nM | 8.4 ± 7.8 | 11.6 ± 14.6 | 6.8 (3.3–13.0) nM | 43.1 (19.0–99.4) nM | 78.6 ± 83.2 | 106 | 161 ± 128 | no successful measurements were obtained | 154.2 ± 4.3 | – | – |
| I: GSVSHHHHHHGGHHHH[PEG3][dK]([PEG3-X1])[dD][dW][dW][dP][dL][dA][dF][dE][dA][dL][dL][dR]GEV[Cit][PEG3][Pra]-NH2 / II: Ac-[Lys(N3)]YFP[d(hCys)]QFAFC-OH (triazole I:36-II:1; disulfide II:5-II:10) [3Cy] | internalized efficiently | 5.5 (3.2–9.5) nM | 6.6 ± 5.0 | 23.5 ± 40.2 | 10.2 (5.2–32.1) nM | 98.8 nM | 138 ± 122 | 228 | 308 ± 257 | no successful measurements were obtained | 138.5 ± 5.1 | 90 | showed signs of cellular stress |
